According to patent US7999069B2, “EphB receptor-binding peptides” (Sanford-Burnham Medical Research Institute, priority 2005, dated 2011):
No end group written: not given here.

What was measured:
EphB receptors [1] = assay: Ephrin-B2 AP binding to different EphB ectodomains in presence of peptide (selectivity); settings: 50 μM peptide
Description: Ephrin-B2 AP binding to the indicated immobilized EphB receptor ectodomains was measured in the presence of the indicated peptides and detected by measuring alkaline phosphatase activity. […] Wells coated with the different EphB ectodomains were incubated with ephrin-B2 AP and 50 μM of the indicated peptides. Ephrin-B2 AP binding in the presence of peptide was normalized to binding in the absence of peptide. All peptides were biotinylated except for FSPQ and EWYM. […] The EWYM, TWO, and FSPQ peptides were not synthesized with a biotin tag and therefore were tested directly for inhibition of ephrin-B2 binding.
Ephrin-B2 AP was co-incubated for 1 hr with different peptide concentrations in Ni-NTA wells coated with 1 μg/ml Eph receptor Fc. After several washes, the amount of ephrin-B2-AP bound was quantified using p-nitrophenylphosphate as a substrate. Alkaline phosphatase activity from wells without EphB Fc was subtracted as background. […] In these experiments, the two peptides are not biotinylated. […] Ephrin-B2-AP binding in the presence of peptide was normalized to binding in the absence of peptide in (A) and (B).

Eph receptor Fc proteins = assay: Immobilized biotinylated peptides capturing Eph receptor Fc proteins on streptavidin plates; format: binding; settings: A- and B-class Eph receptor Fc proteins
Description: To measure the specificity of peptide binding to Eph receptors, biotinylated peptides were immobilized on streptavidin-coated plates at 10 μM (Pierce Biotechnology, Rockford, Ill.) and incubated for 1 hr with different Eph ectodomain Fc fusion proteins at 2.5 μg/ml in binding buffer. Bound receptor was detected using an anti-Fc antibody coupled to alkaline phosphatase (Promega) with p-nitrophenylphosphate as substrate (Pierce). The background that was subtracted from the measurements was determined by omitting the Eph ectodomain.
Most of the peptides were synthesized with a biotin tag and immobilized on streptavidin plates to verify their ability to capture the EphB ectodomains used for their isolation.
Biotinylated peptides were immobilized on streptavidin-coated plates and used to capture Eph receptor Fc proteins. Bound receptor was detected using anti-Fc antibody coupled to alkaline phosphatase and was normalized to the value in the well with highest receptor binding.

EphB1 = target: T1, EphB1 (Homo sapiens, UniProt P54762); assay: Ephrin-B1 Fc-induced EphB1 tyrosine phosphorylation in human aortic endothelial cells; format: cell-based; settings: concentrations up to 200 μM
T1 construct: endogenous EphB1 tyrosine phosphorylation; endogenous in cells; host or cells: human aortic endothelial cells
T1 sequence (P54762 18-984): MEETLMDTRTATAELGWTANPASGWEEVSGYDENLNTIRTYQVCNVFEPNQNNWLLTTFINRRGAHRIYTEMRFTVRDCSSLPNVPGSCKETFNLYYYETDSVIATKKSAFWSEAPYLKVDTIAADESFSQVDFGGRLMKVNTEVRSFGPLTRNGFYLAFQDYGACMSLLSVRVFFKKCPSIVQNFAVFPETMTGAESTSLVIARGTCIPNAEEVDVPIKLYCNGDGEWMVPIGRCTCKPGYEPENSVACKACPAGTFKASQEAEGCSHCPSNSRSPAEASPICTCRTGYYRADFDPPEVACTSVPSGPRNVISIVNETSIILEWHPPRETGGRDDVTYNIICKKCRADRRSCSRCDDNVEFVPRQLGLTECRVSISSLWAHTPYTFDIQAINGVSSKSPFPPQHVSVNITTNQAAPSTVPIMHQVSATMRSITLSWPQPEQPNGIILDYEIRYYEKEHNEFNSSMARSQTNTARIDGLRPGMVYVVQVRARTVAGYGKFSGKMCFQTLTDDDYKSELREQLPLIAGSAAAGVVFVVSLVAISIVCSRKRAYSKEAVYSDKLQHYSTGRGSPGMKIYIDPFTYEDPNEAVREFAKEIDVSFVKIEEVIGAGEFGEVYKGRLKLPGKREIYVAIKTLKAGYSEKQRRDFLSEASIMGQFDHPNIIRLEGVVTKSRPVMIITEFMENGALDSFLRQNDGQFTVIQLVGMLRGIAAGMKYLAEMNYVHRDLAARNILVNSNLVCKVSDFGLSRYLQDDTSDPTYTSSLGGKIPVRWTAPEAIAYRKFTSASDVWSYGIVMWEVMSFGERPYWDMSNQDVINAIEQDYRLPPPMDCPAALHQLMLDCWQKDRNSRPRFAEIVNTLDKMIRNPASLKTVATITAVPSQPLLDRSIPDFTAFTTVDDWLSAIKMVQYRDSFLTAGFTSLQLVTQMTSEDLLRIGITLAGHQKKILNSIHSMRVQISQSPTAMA

EphB receptors [2] = assay: Peptide pull-down of endogenous EphB receptors from lysates; format: binding; settings: peptide on streptavidin beads; mouse brain or cultured cell lysates
Description: The ability of the peptides to bind in a stable manner, which is important for both targeting and competitive inhibition, was tested in pull-down experiments. For peptide pull-down experiments, cells in 60 cm plates at 70% confluency or adult mouse brain tissue were solubilized in pull-down buffer (50 mM HEPES pH 7.5, 150 mM NaCl, 10% glycerol, 1% Triton-X100, 5 mM KCl and 1 mM EDTA). Three μg of biotinylated peptide were incubated for 45-90 min with 5 μl streptavidin agarose beads (Sigma), unbound peptide was washed away, and the beads were incubated with the cell lysates for 45-90 min. Proteins bound to the beads were separated by SDS-polyacrylamide gel electrophoresis and probed by immunoblotting with EphB1, EphB2, or EphB4 antibodies. The EphB1 antibody (Santa Cruz) was detected with a secondary anti-goat IgG peroxidase-conjugated antibody (BioRad Laboratories). The EphB2 and EphB4 antibodies were affinity-purified polyclonal antibodies to GST fusion proteins containing approximately 100 amino acids from the carboxy-terminal tails of the EphB2 or EphB4 receptors (Noren, N. K. et al. 2004 PNAS USA 101:5583-5588; Holash, J. A. & Pasquale, E. B. 1995 Devel Biol 172:683-693) and were detected with a secondary anti-rabbit IgG peroxidase-conjugated antibody (Amersham Biosciences). […]

## EWLSPNLAPSVR [SEQ ID NO 1]
EphB receptors [1]
  Selectivity of antagonism of ephrin-B2 AP binding across EphB ectodomains: selective
Eph receptor Fc proteins
  Eph receptor binding selectivity of immobilized biotinylated peptide: bound selectively to EphB1
EphB1
  Inhibition of endogenous EphB1 tyrosine phosphorylation: did not inhibit endogenous EphB1 tyrosine phosphorylation
EphB receptors [2]
  Stable binding of EphB receptors in pull-down: stably bind EphB receptors
